From patent US12685315B2, “Herbicidal combination” (UPL do Brasil Industria e Comercio de Insumos Agropecuarios …, priority 2019, dated 2026)

Columns and labels:
Assay type in all cases: in vivo
[1] = system: Brachiaria decumbens (BRADC); test: Field trial of triple mixes of amicarbazone, pre and post-emergence weed control
Experimental: (§1) Field trials were done to evaluate the efficacy and synergism of the triple mixes of amicarbazone with other herbicides for the control of weeds in pre and post-emergence application.
(§2) The composition of the present invention was applied. This test was performed for species of weeds: Grasses namely BRADC=Brachiaria decumbens, CCHEC=Cenchrus echinatus, ELEIN=Eleusine indica, TRCIN=Digitaria insularis and Broadleaves namely IAQGR=Ipomoea grandifolia, EPHHL=Euphorbia heterophylla, COMBE=Commelina benghalensis. Data were collected at various period after application of the composition to the soil and calculated.

[2] = system: Cenchrus echinatus (CCHEC); test: as above
Experimental: as §1, §2

[3] = system: Eleusine indica; test: as above
Experimental: as §1, §2

[4] = system: Commelina benghalensis; test: Field trial of triple mixes of amicarbazone, pre-emergence weed control; conditions: dose g ai/ha: Amicarbazone 75, Mesotrione 38, Ametryn 250, mix AMC + AME + MST 75 + 38 + 250
Experimental: as §1, §2

[5] = system: Euphorbia heterophylla; test: as above; conditions: dose g ai/ha: Amicarbazone 250, Sulfentrazone 150, Diuron 250, mix 250 + 150 + 250
Experimental: as §1, §2

[6] = system: Ipomoea grandifolia (IAQGR); test: as above
Experimental: as §1, §2

[7] = system: Digitaria insularis; test: Field trial of triple mixes of amicarbazone, post-emergence weed control; conditions: dose g ai/ha: Amicarbazone 75, S-metolachlor 300, Atrazine 250, mix 75 + 300 + 250
Experimental: as §1, §2

Structure (SMILES): CC(C)c1nn(C(=O)NC(C)(C)C)c(=O)n1N [Amicarbazone]
- % Control ([1]; Table 1, Post-Emergence, 7 DAA, dose g ai/ha: Amicarbazone 75, Isoxaflutole 15, Atrazine 250, mix 75 + 15 + 250): 43.8%
- % Control ([1]; Table 1, Post-Emergence, 21 DAA, dose g ai/ha: Amicarbazone 75, Isoxaflutole 15, Atrazine 250, mix 75 + 15 + 250): 38.8%
- % Control ([1]; Table 1, Post-Emergence, 28 DAA, dose g ai/ha: Amicarbazone 75, Isoxaflutole 15, Atrazine 250, mix 75 + 15 + 250): 40.0%
- % Control ([1]; Table 1, Pre-Emergence, 7 DAA, dose g ai/ha: Amicarbazone 75, Isoxaflutole 15, Atrazine 250, mix 75 + 15 + 250): 0.0%
- % Control ([1]; Table 1, Pre-Emergence, 21 DAA, dose g ai/ha: Amicarbazone 75, Isoxaflutole 15, Atrazine 250, mix 75 + 15 + 250): 0.0%
- % Control ([1]; Table 1, Pre-Emergence, 28 DAA, dose g ai/ha: Amicarbazone 75, Isoxaflutole 15, Atrazine 250, mix 75 + 15 + 250): 0.0%
- % Control ([1]; Table 5, Post-Emergence, 21 DAA, dose g ai/ha: Amicarbazone 250, Clomazone 250, Diuron 250, mix 250 + 250 + 250): 25.0%
- % Control ([1]; Table 5, Post-Emergence, 28 DAA, dose g ai/ha: Amicarbazone 250, Clomazone 250, Diuron 250, mix 250 + 250 + 250): 16.3%
- % Control ([1]; Table 5, Post-Emergence, 35 DAA, dose g ai/ha: Amicarbazone 250, Clomazone 250, Diuron 250, mix 250 + 250 + 250): 13.8%
- % Control ([1]; Table 5, Pre-Emergence, 21 DAA, dose g ai/ha: Amicarbazone 250, Clomazone 250, Diuron 250, mix 250 + 250 + 250): 63.8%
- % Control ([1]; Table 5, Pre-Emergence, 28 DAA, dose g ai/ha: Amicarbazone 250, Clomazone 250, Diuron 250, mix 250 + 250 + 250): 50.0%
- % Control ([1]; Table 5, Pre-Emergence, 35 DAA, dose g ai/ha: Amicarbazone 250, Clomazone 250, Diuron 250, mix 250 + 250 + 250): 46.3%
- % Control ([2]; Table 2, Post-Emergence, 7 DAA, dose g ai/ha: Amicarbazone 75, Isoxaflutole 15, Atrazine 250, mix 75 + 15 + 250): 33.8%
- % Control ([2]; Table 2, Post-Emergence, 28 DAA, dose g ai/ha: Amicarbazone 75, Isoxaflutole 15, Atrazine 250, mix 75 + 15 + 250): 40.0%
- % Control ([2]; Table 2, Post-Emergence, 35 DAA, dose g ai/ha: Amicarbazone 75, Isoxaflutole 15, Atrazine 250, mix 75 + 15 + 250): 36.3%
- % Control ([2]; Table 6, Post-Emergence, 21 DAA, dose g ai/ha: Amicarbazone 250, Sulfentrazone 150, Diuron 250, mix 250 + 150 + 250): 0.0%
- % Control ([2]; Table 6, Post-Emergence, 28 DAA, dose g ai/ha: Amicarbazone 250, Sulfentrazone 150, Diuron 250, mix 250 + 150 + 250): 0.0%
- % Control ([2]; Table 6, Post-Emergence, 35 DAA, dose g ai/ha: Amicarbazone 250, Sulfentrazone 150, Diuron 250, mix 250 + 150 + 250): 0.0%
- % Control ([2]; Table 6, Pre-Emergence, 21 DAA, dose g ai/ha: Amicarbazone 250, Sulfentrazone 150, Diuron 250, mix 250 + 150 + 250): 7.5%
- % Control ([2]; Table 6, Pre-Emergence, 28 DAA, dose g ai/ha: Amicarbazone 250, Sulfentrazone 150, Diuron 250, mix 250 + 150 + 250): 5.0%
- % Control ([2]; Table 6, Pre-Emergence, 35 DAA, dose g ai/ha: Amicarbazone 250, Sulfentrazone 150, Diuron 250, mix 250 + 150 + 250): 3.3%
- % Control ([3]; Table 8, Post-Emergence, 14 DAA, dose g ai/ha: Amicarbazone 250, Sulfentrazone 150, Diuron 250, mix 250 + 150 + 250): 13.8%
- % Control ([3]; Table 8, Post-Emergence, 21 DAA, dose g ai/ha: Amicarbazone 250, Sulfentrazone 150, Diuron 250, mix 250 + 150 + 250): 16.3%
- % Control ([3]; Table 8, Post-Emergence, 28 DAA, dose g ai/ha: Amicarbazone 250, Sulfentrazone 150, Diuron 250, mix 250 + 150 + 250): 13.8%
- % Control ([3]; Table 8, Pre-Emergence, 14 DAA, dose g ai/ha: Amicarbazone 250, Sulfentrazone 150, Diuron 250, mix 250 + 150 + 250): 68.8%
- % Control ([3]; Table 8, Pre-Emergence, 21 DAA, dose g ai/ha: Amicarbazone 250, Sulfentrazone 150, Diuron 250, mix 250 + 150 + 250): 92.0%
- % Control ([3]; Table 8, Pre-Emergence, 28 DAA, dose g ai/ha: Amicarbazone 250, Sulfentrazone 150, Diuron 250, mix 250 + 150 + 250): 87.0%
- % Control ([3]; Table 10, Post-Emergence, 14 DAA, dose g ai/ha: Amicarbazone 75, Mesotrione 38, Ametryn 250, mix AMC + AME + MST 75 + 38 + 250): 0.0%
- % Control ([3]; Table 10, Post-Emergence, 21 DAA, dose g ai/ha: Amicarbazone 75, Mesotrione 38, Ametryn 250, mix AMC + AME + MST 75 + 38 + 250): 0.0%
- % Control ([3]; Table 10, Post-Emergence, 28 DAA, dose g ai/ha: Amicarbazone 75, Mesotrione 38, Ametryn 250, mix AMC + AME + MST 75 + 38 + 250): 0.0%
- % Control ([3]; Table 10, Pre-Emergence, 14 DAA, dose g ai/ha: Amicarbazone 75, Mesotrione 38, Ametryn 250, mix AMC + AME + MST 75 + 38 + 250): 0.0%
- % Control ([3]; Table 10, Pre-Emergence, 21 DAA, dose g ai/ha: Amicarbazone 75, Mesotrione 38, Ametryn 250, mix AMC + AME + MST 75 + 38 + 250): 0.0%
- % Control ([3]; Table 10, Pre-Emergence, 28 DAA, dose g ai/ha: Amicarbazone 75, Mesotrione 38, Ametryn 250, mix AMC + AME + MST 75 + 38 + 250): 0.0%
- % Control ([4]; Table 11, 21 DAA): 8.8%
- % Control ([4]; Table 11, 28 DAA): 7.3%
- % Control ([4]; Table 11, 35 DAA): 6.8%
- % Control ([5]; Table 7, 7 DAA): 3.8%
- % Control ([5]; Table 7, 14 DAA): 28.8%
- % Control ([5]; Table 7, 21 DAA): 56.3%
- % Control ([6]; Table 3, 14 DAA, dose g ai/ha: Amicarbazone 75, Isoxaflutole 15, Atrazine 250, mix 75 + 15 + 250): 11.3%
- % Control ([6]; Table 3, 21 DAA, dose g ai/ha: Amicarbazone 75, Isoxaflutole 15, Atrazine 250, mix 75 + 15 + 250): 0.0%
- % Control ([6]; Table 3, 28 DAA, dose g ai/ha: Amicarbazone 75, Isoxaflutole 15, Atrazine 250, mix 75 + 15 + 250): 0.0%
- % Control ([6]; Table 4, 7 DAA, dose g ai/ha: Amicarbazone 250, Clomazone 250, Diuron 250, mix 250 + 250 + 250): 18.8%
- % Control ([6]; Table 4, 14 DAA, dose g ai/ha: Amicarbazone 250, Clomazone 250, Diuron 250, mix 250 + 250 + 250): 73.8%
- % Control ([6]; Table 4, 28 DAA, dose g ai/ha: Amicarbazone 250, Clomazone 250, Diuron 250, mix 250 + 250 + 250): 86.5%
- % Control ([7]; Table 9, 21 DAA): 7.5%
- % Control ([7]; Table 9, 28 DAA): 1.3%
- % Control ([7]; Table 9, 35 DAA): 0.5%
